Results from PMC7219735, “Crystal structure of Thermus thermophilus methylenetetrahydrofolate dehydrogenase and determinants of thermostability” (PLoS ONE, 2020).

Biological target: T1, T. thermophilus methylenetetrahydrofolate dehydrogenase (TtMTHFD) (Thermus thermophilus, UniProt Q5SJ94)
T1 construct: gene folD; His-tagged (pQtev, tag removal not mentioned), expressed in E. coli BL21(DE3), 33 kDa, dimer; 277 residues in the model, one chain per asymmetric unit
T1 sequence (Q5SJ94 1-282): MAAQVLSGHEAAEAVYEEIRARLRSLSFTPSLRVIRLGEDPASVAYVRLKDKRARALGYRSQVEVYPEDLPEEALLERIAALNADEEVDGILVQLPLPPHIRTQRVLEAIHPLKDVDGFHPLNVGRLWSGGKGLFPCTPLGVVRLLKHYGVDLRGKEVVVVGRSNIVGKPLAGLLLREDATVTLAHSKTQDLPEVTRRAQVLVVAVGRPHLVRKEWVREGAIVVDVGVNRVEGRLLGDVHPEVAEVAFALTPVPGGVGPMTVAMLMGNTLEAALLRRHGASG
Assay: X-ray crystal structure, […] A
Settings: crystals from 800 mM potassium sodium tartrate, 100 mM HEPES pH 7.5; nucleotide binding domain; NADP+ addition not described

Structure (SMILES): NC(=O)c1ccc[n+]([C@@H]2O[C@H](COP(=O)(O)OP(=O)(O)OC[C@H]3O[C@@H](n4cnc5c(N)ncnc54)[C@H](OP(=O)(O)O)[C@@H]3O)[C@@H](O)[C@H]2O)c1 [NADP^+]
- X-ray crystal structure, 2.15 A: we were able to unambiguously identify and fit a molecule of NADP^+
